According to patent US11440923B2, “Substituted macrocyclic indole derivatives” (Bayer Aktiengesellschaft, priority 2017, dated 2022):
Where a name gives a salt, the structure may show the parent alone. Read-outs that look alike come from different tables or passages of the source.

Key:
[1] = tested on: SUDHL5 cells; assay: Induction of caspase-3/7 activity in SUDHL5 cells (Assay 4); format: cell-based
Method in brief: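 Caspase-3/7 activity measured in DLBCL lines after 3 h compound exposure at 37 °C, following overnight plating; Caspase-Glo 3/7 luminescence read after 1 h at 37 °C. Medium-only background subtracted, values normalized to mean of DMSO-treated cells.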

[2] = target: BCL-2 (Homo sapiens (Human), UniProt P10415); assay: Protein-protein interaction assay BCL-2/Bad BH3 peptide (BCL-2 assay, TR-FRET); format: binding; details: read-out: BCL-2 Assay IC50 (median)
Method in brief: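 His-tagged BCL-2 (aa 1-211, E. coli, 1 nM) preincubated 10 min at 22° C with compound (0.1 nM-20 μM), then 1 nM biotinylated Bad BH3 peptide with anti-His-Eu/streptavidin-XL665 added. Buffer: 50 mM Tris pH 7, 100 mM NaCl, 50 mM KF, 2 mM DTT. Incubated 1 h at 22° C, then overnight at 4° C. 665/620 ratio normalized; IC50 by 4-parameter fit.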

[3] = tested on: AMO-1 cells; assay: Antiproliferation assay AMO-1 (Assay 7); format: cell-based
Method in brief: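 Using a parallel time-zero plate as baseline, the anti-proliferative effect was assessed by CellTiter-Glo after 72 h compound incubation at 37 °C. IC50 was computed from day 0 and DMSO control values.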

[4] = tested on: SUDHL5 cells; assay: Induction of cytotoxicity in SUDHL5 cells (Assay 6); format: cell-based; details: 5 h, CellTiter-Glo, read-out: Cytotox SUDHL5 IC50 (median)
Method in brief: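 Run alongside apoptosis measurements, this cytotoxicity readout used cells treated with compound for 5 h at 37 °C and quantified ATP-based luminescence with CellTiter-Glo.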

[5] = Homo sapiens, SU-DHL-5, 3 h, caspase-3/7 induction, 3 h; read-out: Caspase SUDHL5 EC50 (median)
[6] = Homo sapiens, AMO1, 72 h, 72 h, CellTiter-Glo; read-out: Antiproli AMO-1 IC50 median
[7] = caspase-3/7 induction, 3 h; read-out: Caspase SUDHL5 EC50 (median)
[8] = 72 h, CellTiter-Glo; read-out: Antiproli AMO-1 IC50 median
[9] = read-out: Caspase SUDHL5 EC50 (median); caspase-3/7 induction, 3 h
[10] = read-out: Antiproli AMO-1 IC50 median; 72 h, CellTiter-Glo

BCL-2, sequence (P10415 1-211): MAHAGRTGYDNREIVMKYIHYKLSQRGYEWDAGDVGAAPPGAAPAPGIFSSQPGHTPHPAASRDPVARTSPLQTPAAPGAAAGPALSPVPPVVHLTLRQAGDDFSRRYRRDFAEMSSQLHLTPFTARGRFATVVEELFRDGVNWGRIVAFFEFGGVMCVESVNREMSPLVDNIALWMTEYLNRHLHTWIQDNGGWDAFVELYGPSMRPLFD

Row | SMILES | EC50 [1, 5] | IC50 [2] | IC50 [3, 6] | IC50 ([4]; Homo sapiens, SU-DHL-5, 5 h) | EC50 [1, 7] | IC50 [3, 8] | IC50 [4] | EC50 [1, 9] | IC50 [3, 10]
1 | COCCC1OCCCCn2c(C(=O)O)c(CCCOc3cccc4ccccc34)c3ccc(Cl)c(c32)-c2c1nn(C)c2C (racemic) [Example 37, (rac)-4-chloro-(15-rac)-(2-methoxyethyl)-2,3-dimethyl-7-{3-[(naphthalen-1-yl)oxy]propyl}-2,10,11,12,13,15-hexahydropyrazolo[4′,3′:9,10][1,6]oxazacycloundecino[8,7,6-hi]indole-8-carboxylic Acid] | 250 nM | > 20 µM | 536 nM | 390 nM | – | – | – | – | –
2 | CCc1c2c(nn1C)C(CCN1CCOCC1)OCCCCn1c(C(=O)O)c(CCCOc3cccc4cc(F)ccc34)c3ccc(F)c-2c31 (racemic) [Example 49, (rac)-3-Ethyl-4-fluoro-7-{3-[(6-fluoronaphthalen-1-yl)oxy]propyl}-2-methyl-(15-rac)-[2-(morpholin-4-yl)ethyl]-2,10,11,12,13,15-hexahydropyrazolo[4′,3′:9,10][1,6]oxazacycloundecino[8,7,6-hi]indole-8-carboxylic Acid] | 33 nM | > 20 µM | 76.7 nM | 34 nM | – | – | – | – | –
3 | CCc1c2c(nn1C)C(CCCN1CCOCC1)OCCCCn1c(C(=O)O)c(CCCOc3cccc4cc(F)ccc34)c3ccc(Cl)c-2c31 (racemic) [Example 65, (rac)-4-chloro-3-ethyl-7-{3-[(6-fluoronaphthalen-1-yl)oxy]propyl}-2-methyl-(15-rac)-[3-(morpholin-4-yl)propyl]-2,10,11,12,13,15-hexahydropyrazolo[4′,3′:9,10][1,6]oxazacycloundecino[8,7,6-hi]indole-8-carboxylic Acid] | 48 nM | > 20 µM | 89.7 nM | 78 nM | – | – | – | – | –
4 | CCc1c2c(nn1C)C(Cc1ccccc1)OCCCCn1c(C(=O)O)c(CCCOc3cccc4cc(F)ccc34)c3ccc(Cl)c-2c31 (racemic) [Example 92, (rac)-(rac-15)-benzyl-4-chloro-3-ethyl-7-{3-[(6-fluoro-1-naphthyl)oxy]propyl}-2-methyl-2,10,11,12,13,15-hexahydropyrazolo[4′,3′:9,10][1,6]oxazacycloundecino[8,7,6-hi]indole-8-carboxylic Acid] | 960 nM | 12.2 µM | 1360 nM | 1200 nM | – | – | – | – | –
5 | Cc1c2c(nn1C)C(CCN1CCOCC1)OCCCCn1c(C(=O)O)c(CCCOc3cccc4cc(F)ccc34)c3ccc(F)c-2c31 (single isomer, unassigned; enantiomer 2) [Example 21, 4-fluoro-7-{3-[(6-fluoronaphthalen-1-yl)oxy]propyl}-2,3-dimethyl-15-[2-(morpholin-4-yl)ethyl]-2,10,11,12,13,15-hexahydropyrazolo[4′,3′:9,10][1,6]oxazacycloundecino[8,7,6-hi]indole-8-carboxylic Acid (Enantiomer 2)] | 11000 nM | > 20 µM | > 33000 nM | 12000 nM | – | – | – | – | –
6 | Cc1c2c(nn1C)C(CCN1CCOCC1)OCCCCn1c(C(=O)O)c(CCCOc3cccc4cc(F)ccc34)c3ccc(Cl)c-2c31 (single isomer, unassigned; enantiomer 2) [Example 18, 4-chloro-7-{3-[(6-fluoronaphthalen-1-yl)oxy]propyl}-2,3-dimethyl-15-[2-(morpholin-4-yl)ethyl]-2,10,11,12,13,15-hexahydropyrazolo[4′,3′:9,10][1,6]oxazacycloundecino[8,7,6-hi]indole-8-carboxylic Acid (Enantiomer 2)] | 530 nM | > 20 µM | 2370 nM | 530 nM | – | – | – | – | –
7 | CCc1c2c(nn1C)C(CCN1CCOCC1)OCCCCn1c(C(=O)O)c(CCCOc3cccc4cc(F)ccc34)c3ccc(F)c-2c31 (single isomer, unassigned; enantiomer 1) [Example 50, (+)-3-ethyl-4-fluoro-7-{3-[(6-fluoronaphthalen-1-yl)oxy]propyl}-2-methyl-15-[2-(morpholin-4-yl)ethyl]-2,10,11,12,13,15-hexahydropyrazolo[4′,3′:9,10][1,6]oxazacycloundecino[8,7,6-hi]indole-8-carboxylic Acid (Enantiomer 1)] | – | > 20 µM | – | – | 13 nM | 65.4 nM | 16 nM | – | –
8 | Cc1c2c(nn1C)C(C1CC1)OCCCCn1c(C(=O)O)c(CCCOc3cccc4ccccc34)c3ccc(Cl)c-2c31 (single isomer, unassigned; enantiomer 1) [Example 35, (+)-4-chloro-15-cyclopropyl-2,3-dimethyl-7-{3-[(naphthalen-1-yl)oxy]propyl}-2,10,11,12,13,15-hexahydropyrazolo[4′,3′:9,10][1,6]oxazacycloundecino[8,7,6-hi]indole-8-carboxylic Acid N-ethylethanamine Salt (Enantiomer 1)] | – | > 20 µM | – | – | – | – | 2000 nM | 2100 nM | 3710 nM
9 | Cc1c2c(nn1C)C(CCO)OCCCCn1c(C(=O)O)c(CCCOc3cccc4ccccc34)c3ccc(Cl)c-2c31 (racemic) [Example 26, (rac)-4-chloro-15-(2-hydroxyethyl)-2,3-dimethyl-7-{3-[(naphthalen-1-yl)oxy]propyl}-2,10,11,12,13,15-hexahydropyrazolo[4′,3′:9,10][1,6]oxazacycloundecino[8,7,6-hi]indole-8-carboxylic Acid] | 120 nM | > 20 µM | 577 nM | 400 nM | – | – | – | – | –
10 | CCc1c2c(nn1C)C(CC(C)(C)O)OCCCCn1c(C(=O)O)c(CCCOc3cccc4cc(F)ccc34)c3ccc(Cl)c-2c31 (single isomer, unassigned; enantiomer 21) [Example 54, (−)-4-chloro-3-ethyl-7-{3-[(6-fluoronaphthalen-1-yl)oxy]propyl}-15-(2-hydroxy-2-methylpropyl)-2-methyl-2,10,11,12,13,15-hexahydropyrazolo[4′,3′:9,10][1,6]oxazacycloundecino[8,7,6-hi]indole-8-carboxylic Acid—N-ethylethanamine Salt (Enantiomer 21] | – | > 20 µM | – | – | – | – | 9400 nM | 6500 nM | 27800 nM
11 | CCC1OCCCCn2c(C(=O)O)c(CCCOc3cccc4ccccc34)c3ccc(Cl)c(c32)-c2c1nn(C)c2C (racemic) [Example 25, (rac)-4-chloro-15-ethyl-2,3-dimethyl-7-{3-[(naphthalen-1-yl)oxy]propyl}-2,10,11,12,13,15-hexahydropyrazolo[4′,3′:9,10][1,6]oxazacycloundecino[8,7,6-hi]indole-8-carboxylic Acid] | 2000 nM | > 20 µM | 6550 nM | 2800 nM | – | – | – | – | –
12 | Cc1c2c(nn1C)C(CCN1CCOCC1)OCCCCn1c(C(=O)O)c(CCCOc3cccc4ccccc34)c3ccc(Cl)c-2c31 (single isomer, unassigned; enantiomer 1) [Example 14, 4-chloro-2,3-dimethyl-15-[2-(morpholin-4-yl)ethyl]-7-{3-[(naphthalen-1-yl)oxy]propyl}-2,10,11,12,13,15-hexahydropyrazolo[4′,3′:9,10][1,6]oxazacycloundecino[8,7,6-hi]indole-8-carboxylic Acid (Enantiomer 1)] | – | > 20 µM | – | – | 9.8 nM | 43.1 nM | 23 nM | – | –
13 | CCc1c2c(nn1C)C(CCC1CCOCC1)OCCCCn1c(C(=O)O)c(CCCOc3cccc4cc(F)ccc34)c3ccc(Cl)c-2c31 (racemic) [Example 60, (rac)-4-chloro-3-ethyl-7-{3-[(6-fluoronaphthalen-1-yl)oxy]propyl}-2-methyl-(15-rac)-[2-(oxan-4-yl)ethyl]-2,10,11,12,13,15-hexahydropyrazolo[4′,3′:9,10][1,6]oxazacycloundecino[8,7,6-hi]indole-8-carboxylic Acid] | 50 nM | 14.1 µM | 92.9 nM | – | – | – | 77 nM | – | –
14 | Cc1c2c(nn1C)C(C1CC1)OCCCCn1c(C(=O)O)c(CCCOc3cccc4ccccc34)c3ccc(Cl)c-2c31 (racemic) [Example 28, (rac)-4-Chloro-15-cyclopropyl-2,3-dimethyl-7-{3-[(naphthalen-1-yl)oxy]propyl}-2,10,11,12,13,15-hexahydropyrazolo[4′,3′:9,10][1,6]oxazacycloundecino[8,7,6-hi]indole-8-carboxylic Acid] | 2800 nM | > 20 µM | 10900 nM | 3000 nM | – | – | – | – | –
15 | CCc1c2c(nn1C)C(CCN1CCC(F)(F)C1)OCCCCn1c(C(=O)O)c(CCCOc3cccc4cc(F)ccc34)c3ccc(Cl)c-2c31 (racemic) [Example 55, (rac)-4-chloro-(15-rac)-[2-(3,3-difluoropyrrolidin-1-yl)ethyl]-3-ethyl-7-{3-[(6-fluoronaphthalen-1-yl)oxy]propyl}-2-methyl-2,10,11,12,13,15-hexahydropyrazolo[4′,3′:9,10][1,6]oxazacycloundecino[8,7,6-hi]indole-8-carboxylic acid—2-hydroxypropane-1,2,3-tricarboxylic Acid Salt] | 32 nM | > 20 µM | 75.3 nM | 41 nM | – | – | – | – | –
